# Experimental data reported in US10407467B2, “Polymyxin derivatives and their use in combination therapy together with different antibiotics” (priority 2013, dated 2019).
# Structures can show the parent of a compound that is named as a salt. Bridge positions count the residues as written; N and C are the ends. Square brackets hold non-standard residues; d marks the D form. Peptide text beside a SMILES is read from it. * marks the point of attachment. ξ: configuration not given here. X12 = CC(C)C[C@H](N)[C@H](O)C(=O)*; Thr(3ξ) = CC(O)[C@H](N)C(=O)O; Dab = NCC[C@H](N)C(=O)O; X1 = CCCCCCC(O)C(=O)*
# Tests used:
# [1] = rats, 8 mg/kg BID regimen, seven days, compared to Colistin at the same dose regimen
# Description: After one week acclimatisation, male Sprague-Dawley rats were surgically prepared with a jugular cannula and were housed individually, as required, either in pre-assigned housing cages or metabolic cages. Colistin and the Example Compounds were prepared in saline.
# Compounds were introduced via the jugular cannula twice a day 7 hours apart for seven days. Each dose was increased progressively for three days up to the top dose that was then administered until termination of the study. Twenty-four hour urine collection (on ice) was performed at pre-dose and on days 4 and 7. The dose regimen is set out in Table 10 below.
# The doses in the table are indicated in mg drug base/kg (free base).
# The activity in urine of the N-acetyl-beta-D-glucosaminidase (NAG) was determined spectrophotometrically using the NAG assay kit from Roche Applied Science. Biomarkers of kidney injury were determined using the Kidney Injury Panel II from the Multi-Spot® Assay System (Meso Scale Discovery).
# [2] = test system: Escherichia coli; assay: MIC, compound in combination with a second agent (broth microdilution); format: cell-based
# In short: (§1)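 MIC = combined concentration of test compound plus partner agent, mixed at equal mass (1:1 w/w, salt form as used). Up to four strains per species; colonies adjusted to 0.5 McFarland. Run in duplicate; >2-fold disagreement invalidates the run.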
# [3] = test system: Klebsiella pneumoniae; assay: as above; format: cell-based; conditions: for MIC K. pneumoniae CCUG-59348: strain CCUG-59348
# In short: as §1
# [4] = test system: Pseudomonas aeruginosa; assay: as above; format: cell-based; conditions: for MIC P. aeruginosa ATCC-47: strain ATCC-47
# In short: as §1
# [5] = test system: Acinetobacter baumannii; assay: as above; format: cell-based; conditions: for MIC A. baumannii CCUG57249: strain CCUG57249
# In short: as §1
# [6] = test system: Klebsiella pneumoniae ATCC10031; conditions: 10 mg/kg/day, neutropenic mice thigh infection
# Description: At 1 h, the CFU count was determined from 5 mice and the remaining mice (five per group) were treated with a subcutaneous injection of the drug at +1 and 6 hr post-infection.
# Twenty-four hours after infection, the mice were euthanized humanely. The muscle of the right thigh of each animal was harvested, homogenized, serially diluted and plated on Brain Heart Infusion agar+0.5% charcoal (w/v) for CFU determination. Decrease of the total CFU of right thigh as compared to control counts at 24 h post-infection was determined for each dose group.
# [7] = test system: Escherichia coli; assay: MIC, sole activity (no second agent); format: cell-based
# In short: (§2)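 First, isolated colonies grown 18-24 hours on Mueller-Hinton agar were suspended to 0.5 McFarland; next, up to four strains per pathogen were tested in duplicate in cation-adjusted MHB; finally, the lower concordant value or modal repeat value was reported against Polymyxin B.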
# [8] = test system: Klebsiella pneumoniae; assay: MIC, sole activity (no second agent); format: cell-based
# In short: as §2
# [9] = test system: Pseudomonas aeruginosa; assay: MIC, sole activity (no second agent); format: cell-based
# In short: as §2
# [10] = test system: Acinetobacter baumannii; assay: MIC, sole activity (no second agent); format: cell-based
# In short: as §2
# [11] = test system: HK-2 cell line; assay: In vitro renal cell toxicity assay (resazurin reduction); format: cell-based, human
# [12] = test system: P. aeruginosa ATCC27853; format: in vivo, Pseudomonas aeruginosa; conditions: ATCC27853, in vivo, iv, 5 mg/kg, 6 h
# Description: Compounds were administered in solution by intravenous (IV) bolus injection into the lateral tail vein. […] At 1 hour post infection, 4 animals were humanely euthanized using pentabarbitone overdose to provide a pre-treatment control group. At 9 hours post infection, the clinical condition of all animals was assessed prior to them being humanely euthanized by pentabarbitone overdose. Animal weight was determined before both thighs were removed and weighed individually. Individual thigh tissue samples were homogenized in ice cold sterile phosphate buffered saline. Thigh homogenates were then quantitatively cultured onto CLED agar and incubated at 37° C. for 24 hours before colonies were counted.
# [13] = 1:1 (wt:wt) combination with Rifampicin, MIC = total drug concentration, strain NCTC9001
# [14] = 1:1 combination with Ciprofloxacin, total drug concentration
# [15] = 1:1 combination with Tigecycline, total drug concentration
# [16] = 1:1 combination with Vancomycin, total drug concentration
# [17] = 1:1 (wt:wt) combination with Rifampicin, MIC = total drug concentration
# [18] = 1:1 combination with Ciprofloxacin (by row order), total drug concentration
# [19] = 1:1 (wt:wt) combination with Rifampicin, MIC = total drug concentration, strain ATCC 27853
# [20] = 1:1 (wt:wt) combination with Rifampicin, MIC = total drug concentration, strain CCUG 59626
# [21] = 1:1 (wt:wt) combination with Rifampicin, MIC = total drug concentration, strain NCTC 13424
# [22] = Second Agent none (Table 7B, by row order)
smiles,measurement,setting,value
"CCCCCCC(O)C(=O)N[C@H](C(=O)N[C@@H](CCN)C(=O)N[C@H]1CCNC(=O)[C@H]([C@@H](C)O)NC(=O)[C@H](CCN)NC(=O)[C@H](CCN)NC(=O)[C@H](CC(C)C)NC(=O)[C@@H](Cc2ccccc2)NC(=O)[C@H](CCN)NC1=O)[C@@H](C)O (stereo partly drawn) [Example 1, [2(R,S)-2-Hydroxyoctanoyl] polymyxin B nonapeptide] (X1-T[Dab][Dab][Dab][dF]L[Dab][Dab]T; lactam 3-C)","levels of the renal biomarkers NAG, albumin and cystatin C in urine",[1],significantly reduced levels
same,MIC E. coli NCTC9001,[2]; [13],0.5 micrograms/mL
same,MIC E. coli ATCC25922,[2]; [14],≤0.06 micrograms/mL
same,MIC E. coli CCUG 59342,[2]; [14],2 micrograms/mL
same,MIC E. coli NCTC9001,[2]; [14],≤0.06 micrograms/mL
same,MIC E. coli NCTC9001,[2]; [15],4 micrograms/mL
same,MIC E. coli NCTC9001,[2]; [16],4 microgram/mL
same,MIC E. coli NCTC9001,"[2]; E. coli NCTC9001, 1:1 combination with Meropenem, total drug concentration",0.25 micrograms/mL
same,MIC K. pneumoniae ATCC 4352,"[3]; 1:1 (wt:wt) combination with Rifampicin, MIC = total drug concentration, strain ATCC 4352",1 micrograms/mL
same,MIC K. pneumoniae ATCC-BAA-2146,"[3]; 1:1 (wt:wt) combination with Rifampicin, MIC = total drug concentration, strain ATCC-BAA-2146",2 micrograms/mL
same,MIC K. pneumoniae CCUG-59348,[3]; [17],2 micrograms/mL
same,MIC K. pneumoniae NCTC 13438,"[3]; 1:1 (wt:wt) combination with Rifampicin, MIC = total drug concentration, strain NCTC 13438",1 micrograms/mL
same,MIC K. pneumoniae ATCC 4352,[3]; [18],≤0.06 micrograms/mL
same,MIC K. pneumoniae ATCC BAA-1706,[3]; [18],0.5 micrograms/mL
same,MIC K. pneumoniae CCUG 59348,[3]; [14],32 micrograms/mL
same,MIC K. pneumoniae NCTC 13442,[3]; [14],1 micrograms/mL
same,MIC K. pneumoniae CCUG 59348,[3]; [15],>32 micrograms/mL
same,MIC K. pneumoniae NCTC 13442,[3]; [15],16 micrograms/mL
same,MIC K. pneumoniae CCUG 59348,[3]; [16],>32 microgram/mL
same,MIC K. pneumoniae CCUG 59626,[3]; [16],2 microgram/mL
same,MIC K. pneumoniae NCTC 13442,[3]; [16],8 microgram/mL
same,MIC K. pneumoniae ATCC BAA-1706,"[3]; K. pneumoniae ATCC BAA-1706, 1:1 combination with Meropenem, total drug concentration",4 micrograms/mL
same,MIC K. pneumoniae CCUG 59348,"[3]; K. pneumoniae CCUG 59348, 1:1 combination with Meropenem, total drug concentration",>32 micrograms/mL
same,MIC K. pneumoniae NCTC 13442,"[3]; K. pneumoniae NCTC 13442, 1:1 combination with Meropenem, total drug concentration",8 micrograms/mL
same,MIC P. aeruginosa ATCC 27853,[4]; [19],0.5 micrograms/mL
same,MIC P. aeruginosa ATCC-47,[4]; [17],1 micrograms/mL
same,MIC P. aeruginosa CCUG 59626,[4]; [20],1 micrograms/mL
same,MIC P. aeruginosa ATCC 27853,[4]; [18],0.125 micrograms/mL
same,MIC P. aeruginosa CCUG 59626,[4]; [18],1 micrograms/mL
same,MIC P. aeruginosa CCUG 59626,[4]; [15],2 micrograms/mL
same,MIC P. aeruginosa CCUG 59626,"[4]; P. aeruginosa CCUG 59626, 1:1 combination with Meropenem, total drug concentration",2 micrograms/mL
same,MIC A. baumannii CCUG57249,[5]; [17],0.25 micrograms/mL
same,MIC A. baumannii NCTC 13424,[5]; [21],0.25 micrograms/mL
same,MIC A. baumannii NCTC 13424,[5]; [18],0.5 micrograms/mL
same,reduction in bacterial counts,[6],approx. 2 log10
same,MIC E. coli NCTC9001,"[7]; E. coli NCTC9001, second agent none",4 micrograms/mL
same,MIC E. coli NCTC9001,[7]; Second Agent none (Table 7A),4 microgram/mL
same,MIC E. coli ATCC25922,[7]; Second Agent none (Table 7B),4 micrograms/mL
same,MIC E. coli CCUG 59342,[7]; Second Agent none (Table 7B),1 micrograms/mL
same,MIC E. coli NCTC9001,[7]; Second Agent none (Table 7B),8 micrograms/mL
same,MIC E. coli NCTC9001,[7]; Second Agent none (Table 7C),4 micrograms/mL
same,MIC E. coli ATCC25922,"[7]; in the absence of Rifampicin, strain ATCC25922",2 micrograms/mL
same,MIC E. coli NCTC9001,"[7]; in the absence of Rifampicin, strain NCTC9001",2 micrograms/mL
same,MIC K. pneumoniae ATCC BAA-1706,"[8]; K. pneumoniae ATCC BAA-1706, second agent none",4 micrograms/mL
same,MIC K. pneumoniae CCUG 59348,"[8]; K. pneumoniae CCUG 59348, second agent none",>32 micrograms/mL
same,MIC K. pneumoniae NCTC 13442,"[8]; K. pneumoniae NCTC 13442, second agent none",8 micrograms/mL
same,MIC K. pneumoniae CCUG 59348,[8]; Second Agent none (Table 7A),>32 microgram/mL
same,MIC K. pneumoniae CCUG 59626,[8]; Second Agent none (Table 7A),2 microgram/mL
same,MIC K. pneumoniae NCTC 13442,[8]; Second Agent none (Table 7A),8 microgram/mL
same,MIC K. pneumoniae CCUG 59348,[8]; Second Agent none (Table 7B),>32 micrograms/mL
same,MIC K. pneumoniae NCTC 13442,[8]; Second Agent none (Table 7B),8 micrograms/mL
same,MIC K. pneumoniae ATCC 4352,[8]; [22],1 micrograms/mL
same,MIC K. pneumoniae ATCC BAA-1706,[8]; [22],4 micrograms/mL
same,MIC K. pneumoniae CCUG 59348,[8]; Second Agent none (Table 7C),>32 micrograms/mL
same,MIC K. pneumoniae NCTC 13442,[8]; Second Agent none (Table 7C),8 micrograms/mL
same,MIC K. pneumoniae ATCC 4352,"[8]; in the absence of Rifampicin, strain ATCC 4352",1 micrograms/mL
same,MIC K. pneumoniae CCUG-59348,"[8]; in the absence of Rifampicin, strain CCUG-59348",>32 micrograms/mL
same,MIC P. aeruginosa CCUG 59626,"[9]; P. aeruginosa CCUG 59626, second agent none",2 micrograms/mL
same,MIC P. aeruginosa ATCC 27853,[9]; [22],0.5 micrograms/mL
same,MIC P. aeruginosa CCUG 59626,[9]; [22],2 micrograms/mL
same,MIC P. aeruginosa CCUG 59626,[9]; Second Agent none (Table 7C),2 micrograms/mL
same,MIC P. aeruginosa ATCC 27853,"[9]; in the absence of Rifampicin, strain ATCC27853",0.5 micrograms/mL
same,MIC P. aeruginosa ATCCCRM-9027,"[9]; in the absence of Rifampicin, strain ATCCCRM-9027",0.25 micrograms/mL
same,MIC P. aeruginosa CCUG 59626,"[9]; in the absence of Rifampicin, strain CCUG 59626",2 micrograms/mL
same,MIC A. baumannii NCTC 13424,[10]; [22],4 micrograms/mL
same,MIC A. baumannii ATCCBAA-747,"[10]; in the absence of Rifampicin, strain ATCCBAA-747",2 micrograms/mL
same,MIC A. baumannii NCTC 13423,"[10]; in the absence of Rifampicin, strain NCTC13423",1 micrograms/mL
same,HK-2 toxicity (IC50) compared with PMB,[11],significantly increased recorded IC50 values
"CC(C)C[C@@H]1NC(=O)[C@@H](Cc2ccccc2)NC(=O)[C@H](CCN)NC(=O)[C@@H](NC(=O)[C@H](CCN)NC(=O)[C@@H](NC(=O)[C@@H](O)[C@@H](N)CC(C)C)C(C)O)CCNC(=O)[C@H](C(C)O)NC(=O)[C@H](CCN)NC(=O)[C@H](CCN)NC1=O (stereo partly drawn) [Example 41, (2S,3S)-3-Amino-2-hydroxy-5-methylhexanoyl polymyxin B nonapeptide, trifluoroacetate salt] (X12-[Thr(3ξ)][Dab][Dab][Dab][dF]L[Dab][Dab][Thr(3ξ)]; lactam 3-C)",log reduction in bacterial counts compared to non-treated control,[12],2.73 log
same,MIC E. coli ATCC25922,"[2]; 1:1 (wt:wt) combination with Rifampicin, MIC = total drug concentration, strain ATCC25922",≤0.06 micrograms/mL
same,MIC E. coli NCTC9001,[2]; [13],0.125 micrograms/mL
same,MIC K. pneumoniae CCUG-59348,[3]; [17],2 micrograms/mL
same,MIC P. aeruginosa ATCC 27853,[4]; [19],0.125 micrograms/mL
same,MIC P. aeruginosa ATCC CRM-9027,"[4]; 1:1 (wt:wt) combination with Rifampicin, MIC = total drug concentration, strain ATCC CRM-9027",0.25 micrograms/mL
same,MIC P. aeruginosa ATCC-47,[4]; [17],≤0.06 micrograms/mL
same,MIC P. aeruginosa CCUG 59626,[4]; [20],0.125 micrograms/mL
same,MIC A. baumannii ATCC BAA-747,"[5]; 1:1 (wt:wt) combination with Rifampicin, MIC = total drug concentration, strain ATCC BAA-747",≤0.06 micrograms/mL
same,MIC A. baumannii CCUG57249,[5]; [17],≤0.06 micrograms/mL
same,MIC A. baumannii NCTC 13423,"[5]; 1:1 (wt:wt) combination with Rifampicin, MIC = total drug concentration, strain NCTC 13423",≤0.06 micrograms/mL
same,MIC A. baumannii NCTC 13424,[5]; [21],≤0.06 micrograms/mL
